For orientation: IC50 means the midpoint of a concentration-inhibition curve. Low readings indicate inhibition by little substance, high ones a need for much substance.

Three compounds from ChEMBL document CHEMBL1128293, “4,4-Disubstituted piperidines: a new class of NK1 antagonist” (J Med Chem, 1995) can be followed below.

The target in this assay is Substance-P receptor (Homo sapiens, UniProt P25103). The assay can be described thus: Antagonistic activity against human Tachykinin receptor 1. Type of assay: functional.

Structures are written as SMILES.

Sequence of Substance-P receptor (P25103 whole entry): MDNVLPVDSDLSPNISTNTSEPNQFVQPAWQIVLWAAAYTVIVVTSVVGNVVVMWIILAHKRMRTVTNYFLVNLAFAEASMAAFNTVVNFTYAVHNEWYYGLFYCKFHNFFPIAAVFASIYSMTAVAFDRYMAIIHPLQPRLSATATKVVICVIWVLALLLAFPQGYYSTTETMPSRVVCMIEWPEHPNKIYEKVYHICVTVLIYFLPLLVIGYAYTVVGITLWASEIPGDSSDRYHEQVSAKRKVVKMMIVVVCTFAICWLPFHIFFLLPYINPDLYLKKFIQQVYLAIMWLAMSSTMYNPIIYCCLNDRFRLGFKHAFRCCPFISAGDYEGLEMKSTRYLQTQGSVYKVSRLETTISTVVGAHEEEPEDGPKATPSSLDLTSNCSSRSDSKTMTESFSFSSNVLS

Take `Clc1cc(Cl)cc(COCC2(c3ccccc3)CCNCC2)c1`: the IC50 is 4.6 nM.
`Cc1cc(C)cc(COCC2(c3ccccc3)CCNCC2)c1` displayed an IC50 of 9 nM.
Compound `FC(F)(F)c1cccc(COCC2(c3ccccc3)CCNCC2)c1` registered an IC50 of 57 nM.
